Results from PubChem BioAssay AID2060615 (Molecular Pharmacology Branch, DTP, NCI, 2025).

Tested on: 496974-208-R-J2-PDC complex spheroids, growth % test/control
Test: Anticancer human tumor 496974-208-R-J2-PDC patient-derived pancreatic carcinoma cell line growth inhibition [CLK]
Settings: for IC50: curve of first compound; for viability, T/C: stronger effect = lower value
Summary of the method: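 Patient-derived tumor cells grown as complex spheroids with HUVEC endothelial cells and mesenchymal stem cells, treated with drug combinations. Concentrations descend in half-log steps from near clinical Cmax, or from 10 microM if Cmax unknown.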
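Note: spheroids exposed to the drugs for 7 days before readout.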
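Throughout, for viability, T/C: 100% = DMSO vehicle control wells.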

For `CC(C)CC(NC(=O)C(Cc1ccccc1)NC(=O)c1cnccn1)B(O)O` (centres undefined) + CN1CCN(c2cc(C(=O)Nc3cc4cc(-c5cnn(C)c5)ccc4cn3)ccn2)CC1, the IC50 (second compound 0.0316 µM) was 4.54 nM, the IC50 (second compound 0.1 µM) was 3.84 nM and the IC50 (second compound 0.316 µM) was under 0.949 nM. It also gave an IC50 (second compound 1 µM) of under 0.949 nM, an IC50 (second compound 3.16 µM) of under 0.949 nM and an IC50 (second compound 10 µM) of under 0.949 nM. The viability, T/C (second compound 0.0316 µM, first compound 0.000949 µM) was 104%, the viability, T/C (second compound 0.0316 µM, first compound 0.003 µM) was 77.2% and the viability, T/C (second compound 0.0316 µM, first compound 0.00949 µM) was 1.7%. For the same molecule, the viability, T/C (second compound 0.0316 µM, first compound 0.03 µM) was 0.32%, the viability, T/C (second compound 0.0316 µM, first compound 0.0949 µM) was 0.24% and the viability, T/C (second compound 0.0316 µM, first compound 0.3 µM) was 2.04%. The viability, T/C (second compound 0.1 µM, first compound 0.000949 µM) was 85.5%, the viability, T/C (second compound 0.1 µM, first compound 0.003 µM) was 63.1% and the viability, T/C (second compound 0.1 µM, first compound 0.00949 µM) was 2%. It also gave a viability, T/C (second compound 0.1 µM, first compound 0.03 µM) of 0.33%, a viability, T/C (second compound 0.1 µM, first compound 0.0949 µM) of 0.27% and a viability, T/C (second compound 0.1 µM, first compound 0.3 µM) of 3.67%. For the same molecule, the viability, T/C (second compound 0.316 µM, first compound 0.000949 µM) was 6.64%, the viability, T/C (second compound 0.316 µM, first compound 0.003 µM) was 5.3% and the viability, T/C (second compound 0.316 µM, first compound 0.00949 µM) was 0.71%. The viability, T/C (second compound 0.316 µM, first compound 0.03 µM) was 0.38%, the viability, T/C (second compound 0.316 µM, first compound 0.0949 µM) was 0.51% and the viability, T/C (second compound 0.316 µM, first compound 0.3 µM) was 2.72%. For the same molecule, the viability, T/C (second compound 1 µM, first compound 0.000949 µM) was 0.49%, the viability, T/C (second compound 1 µM, first compound 0.003 µM) was 1.07% and the viability, T/C (second compound 1 µM, first compound 0.00949 µM) was 0.68%. The viability, T/C (second compound 1 µM, first compound 0.03 µM) was 0.63%, the viability, T/C (second compound 1 µM, first compound 0.0949 µM) was 2.26% and the viability, T/C (second compound 1 µM, first compound 0.3 µM) was 1.33%. It also gave a viability, T/C (second compound 3.16 µM, first compound 0.000949 µM) of 0.5%, a viability, T/C (second compound 3.16 µM, first compound 0.003 µM) of 2.35% and a viability, T/C (second compound 3.16 µM, first compound 0.00949 µM) of 0.66%. The viability, T/C (second compound 3.16 µM, first compound 0.03 µM) was 0.53%, the viability, T/C (second compound 3.16 µM, first compound 0.0949 µM) was 1.54% and the viability, T/C (second compound 3.16 µM, first compound 0.3 µM) was 2.08%. For the same molecule, the viability, T/C (second compound 10 µM, first compound 0.000949 µM) was 0.27%, the viability, T/C (second compound 10 µM, first compound 0.003 µM) was 0.26% and the viability, T/C (second compound 10 µM, first compound 0.00949 µM) was 1.83%. The viability, T/C (second compound 10 µM, first compound 0.03 µM) was 0.24%, the viability, T/C (second compound 10 µM, first compound 0.0949 µM) was 0.3% and the viability, T/C (second compound 10 µM, first compound 0.3 µM) was 2.65%.

`O=C(c1cc(Cc2n[nH]c(=O)c3ccccc23)ccc1F)N1CCN(C(=O)C2CC2)CC1` + CN1CCN(c2cc(C(=O)Nc3cc4cc(-c5cnn(C)c5)ccc4cn3)ccn2)CC1 showed an IC50 (second compound 0.0316 µM) of over 10000 nM, an IC50 (second compound 0.1 µM) of over 10000 nM and an IC50 (second compound 0.316 µM) of under 31.6 nM. It also gave an IC50 (second compound 1 µM) of under 31.6 nM, an IC50 (second compound 3.16 µM) of under 31.6 nM and an IC50 (second compound 10 µM) of under 31.6 nM. The viability, T/C (second compound 0.0316 µM, first compound 0.0316 µM) was 98.7%, the viability, T/C (second compound 0.0316 µM, first compound 0.1 µM) was 96% and the viability, T/C (second compound 0.0316 µM, first compound 0.316 µM) was 87.4%. It also gave a viability, T/C (second compound 0.0316 µM, first compound 1 µM) of 97.7%, a viability, T/C (second compound 0.0316 µM, first compound 3.16 µM) of 88.3% and a viability, T/C (second compound 0.0316 µM, first compound 10 µM) of 88.2%. For the same molecule, the viability, T/C (second compound 0.1 µM, first compound 0.0316 µM) was 82.7%, the viability, T/C (second compound 0.1 µM, first compound 0.1 µM) was 76% and the viability, T/C (second compound 0.1 µM, first compound 0.316 µM) was 80.2%. It also gave a viability, T/C (second compound 0.1 µM, first compound 1 µM) of 79.4%, a viability, T/C (second compound 0.1 µM, first compound 3.16 µM) of 83.2% and a viability, T/C (second compound 0.1 µM, first compound 10 µM) of 64.7%. It also gave a viability, T/C (second compound 0.316 µM, first compound 0.0316 µM) of 5.96%, a viability, T/C (second compound 0.316 µM, first compound 0.1 µM) of 5.32% and a viability, T/C (second compound 0.316 µM, first compound 0.316 µM) of 5.38%. For the same molecule, the viability, T/C (second compound 0.316 µM, first compound 1 µM) was 6.21%, the viability, T/C (second compound 0.316 µM, first compound 3.16 µM) was 5.51% and the viability, T/C (second compound 0.316 µM, first compound 10 µM) was 6.01%. For the same molecule, the viability, T/C (second compound 1 µM, first compound 0.0316 µM) was 0.53%, the viability, T/C (second compound 1 µM, first compound 0.1 µM) was 0.75% and the viability, T/C (second compound 1 µM, first compound 0.316 µM) was 1.95%. It also gave a viability, T/C (second compound 1 µM, first compound 1 µM) of 0.47%, a viability, T/C (second compound 1 µM, first compound 3.16 µM) of 1.71% and a viability, T/C (second compound 1 µM, first compound 10 µM) of 1.78%. For the same molecule, the viability, T/C (second compound 3.16 µM, first compound 0.0316 µM) was 0.81%, the viability, T/C (second compound 3.16 µM, first compound 0.1 µM) was 0.43% and the viability, T/C (second compound 3.16 µM, first compound 0.316 µM) was 0.55%. It also gave a viability, T/C (second compound 3.16 µM, first compound 1 µM) of 0.48%, a viability, T/C (second compound 3.16 µM, first compound 3.16 µM) of 0.71% and a viability, T/C (second compound 3.16 µM, first compound 10 µM) of 4%. For the same molecule, the viability, T/C (second compound 10 µM, first compound 0.0316 µM) was 0.41%, the viability, T/C (second compound 10 µM, first compound 0.1 µM) was 0.24% and the viability, T/C (second compound 10 µM, first compound 0.316 µM) was 0.82%. For the same molecule, the viability, T/C (second compound 10 µM, first compound 1 µM) was 0.42%, the viability, T/C (second compound 10 µM, first compound 3.16 µM) was 2.08% and the viability, T/C (second compound 10 µM, first compound 10 µM) was 2.09%.
